Results as given in ChEMBL document CHEMBL4715697, “Synthesis and biological activity of benzamide DNA minor groove binders” (2016).

How the values were obtained:
NCI-H322M = test: Growth inhibition of human NCI-H322M cells assessed as cell growth at 10 uM incubated for 48 hrs by sulforhodamine B assay relative to control; assay type: functional; conditions: read-out: Activity
[1] = tested on: Poly(dA-dT)oligonucleotide; test: Displacement of ethidium bromide from minor groove of poly(dA:dT) dsDNA (unknown origin) by fluorescence spectrophotometry; assay type: nucleic-acid assay
UO-31 = test: Growth inhibition of human UO-31 cells assessed as cell growth at 10 uM incubated for 48 hrs by sulforhodamine B assay relative to control; assay type: functional; conditions: read-out: Activity
HT-29 = test: Growth inhibition of human HT-29 cells assessed as cell growth at 10 uM incubated for 48 hrs by sulforhodamine B assay relative to control; assay type: functional; conditions: read-out: Activity
NCI-H460 = test: Growth inhibition of human NCI-H460 cells assessed as cell growth at 10 uM incubated for 48 hrs by sulforhodamine B assay relative to control; assay type: functional; conditions: read-out: Activity
UACC-257 = test: Growth inhibition of human UACC-257 cells assessed as cell growth at 10 uM incubated for 48 hrs by sulforhodamine B assay relative to control; assay type: functional; conditions: read-out: Activity
ACHN = test: Growth inhibition of human ACHN cells assessed as cell growth at 10 uM incubated for 48 hrs by sulforhodamine B assay relative to control; assay type: functional; conditions: read-out: Activity
Hs-578T = test: Growth inhibition of human Hs-578T cells assessed as cell growth at 10 uM incubated for 48 hrs by sulforhodamine B assay relative to control; assay type: functional; conditions: read-out: Activity
UACC-62 = test: Growth inhibition of human UACC-62 cells assessed as cell growth at 10 uM incubated for 48 hrs by sulforhodamine B assay relative to control; assay type: functional; conditions: read-out: Activity
CAKI-1 = test: Growth inhibition of human CAKI-1 cells assessed as cell growth at 10 uM incubated for 48 hrs by sulforhodamine B assay relative to control; assay type: functional; conditions: read-out: Activity
SF-295 = test: Growth inhibition of human SF-295 cells assessed as cell growth at 10 uM incubated for 48 hrs by sulforhodamine B assay relative to control; assay type: functional; conditions: read-out: Activity
OVCAR-3 = test: Growth inhibition of human OVCAR-3 cells assessed as cell growth at 10 uM incubated for 48 hrs by sulforhodamine B assay relative to control; assay type: functional; conditions: read-out: Activity
[2] = tested on: Poly(dA-dT)oligonucleotide; test: Binding affinity to minor groove of poly(dA:dT) dsDNA (unknown origin) assessed as change in melting temperature by UV-vis spectrophotometry based DNA melting assay; assay type: nucleic-acid assay
PC-3 = test: Growth inhibition of human PC-3 cells assessed as cell growth at 10 uM incubated for 48 hrs by sulforhodamine B assay relative to control; assay type: functional; conditions: read-out: Activity
OVCAR-5 = test: Growth inhibition of human OVCAR-5 cells assessed as cell growth at 10 uM incubated for 48 hrs by sulforhodamine B assay relative to control; assay type: functional; conditions: read-out: Activity
SN12C = test: Growth inhibition of human SN12C cells assessed as cell growth at 10 uM incubated for 48 hrs by sulforhodamine B assay relative to control; assay type: functional; conditions: read-out: Activity
HCC 2998 = test: Growth inhibition of human HCC 2998 cells assessed as cell growth at 10 uM incubated for 48 hrs by sulforhodamine B assay relative to control; assay type: functional; conditions: read-out: Activity
K562 = test: Growth inhibition of human K562 cells assessed as cell growth at 10 uM incubated for 48 hrs by sulforhodamine B assay relative to control; assay type: functional; conditions: read-out: Activity
SR = test: Growth inhibition of human SR cells assessed as cell growth at 10 uM incubated for 48 hrs by sulforhodamine B assay relative to control; assay type: functional; conditions: read-out: Activity
OVCAR-4 = test: Growth inhibition of human OVCAR-4 cells assessed as cell growth at 10 uM incubated for 48 hrs by sulforhodamine B assay relative to control; assay type: functional; conditions: read-out: Activity

SMILES | growth at 10 µM (NCI-H322M) | C50 [1] | growth at 10 µM (UO-31) | growth at 10 µM (HT-29) | growth at 10 µM (NCI-H460) | growth at 10 µM (UACC-257) | growth at 10 µM (ACHN) | growth at 10 µM (Hs-578T) | growth at 10 µM (UACC-62) | growth at 10 µM (CAKI-1) | growth at 10 µM (SF-295) | growth at 10 µM (OVCAR-3) | ΔTm [2] | growth at 10 µM (PC-3) | growth at 10 µM (OVCAR-5) | growth at 10 µM (SN12C) | growth at 10 µM (HCC 2998) | growth at 10 µM (K562) | growth at 10 µM (SR) | growth at 10 µM (OVCAR-4)
CCN(CC)CC(=O)Nc1cccc(C(=O)Nc2cc(CO)cc(NC(C)=O)c2)c1 | 117% | > 1 mM | 96.6% | 103% | 104% | 101% | 105% | 130% | 106% | 112% | 87% | 126% | 8.7 °C | 102% | 105% | 112% | 95.8% | 105% |  | 
CC(=O)Nc1ccc(C(=O)Nc2cc(CO)cc(NC(C)=O)c2)cc1 | 109% |  | 101% | 106% | 109% | 107% | 108% | 121% | 101% |  |  | 123% |  | 104% | 105% | 104% | 99.4% | 99.5% | 92.1% | 
CC(=O)Nc1cccc(NC(=O)c2ccc(C(=O)Nc3cc(CCl)cc(NC(C)=O)c3)cc2)c1 | 125% |  | 104% | 111% | 112% | 106% | 109% | 114% | 98.3% | 115% |  | 128% |  | 95.2% | 112% | 102% | 103% | 104% | 103% | 119%
CC(=O)Nc1cc(CO)cc(NC(=O)c2ccc(NC(=O)CCCN3CCOCC3)cc2)c1 | 107% |  | 86.6% | 104% | 110% | 106% | 109% | 114% | 98.3% | 110% | 150% | 121% |  | 104% | 106% | 97% | 102% | 96.7% | 108% | 
CC(=O)Nc1cc(CO)cc(NC(=O)c2cccc(NC(=O)CCCN3CCOCC3)c2)c1 | 105% |  | 95.5% | 106% | 108% | 107% | 108% | 114% | 100% | 116% | 120% | 145% |  | 102% | 101% | 101% | 101% | 105% | 105% | 
CC(=O)Nc1cc(CCl)cc(NC(=O)c2ccc(C(=O)NCCCN(C)C)cc2)c1 | 116% | 0.506 mM | 103% | 103% | 104% | 102% | 105% | 111% | 114% | 102% | 97.6% | 106% | 21.6 °C | 109% | 97.5% | 128% | 90% | 106% |  | 
CC(=O)Nc1cc(CO)cc(NC(=O)c2ccc(C(=O)NCCCN(C)C)cc2)c1 | 121% | > 1 mM | 98.1% | 100% | 112% | 107% | 108% | 114% | 95.9% | 109% |  | 129% |  | 97.9% | 107% | 95.6% | 102% | 104% | 91.7% | 103%
